In US4616028A, “Substituted 2,3,4,9-tetrahydro-1H-carbazole-1-acetic acid derivatives, compositions and use” (American Home Products Corporation, priority 1985, dated 1986):

Experiments:
Adjuvant Edema = assay: Preventative Adjuvant Edema (Freund's complete adjuvant, hind paw volume); format: in vivo, rat (male Sprague Dawley); settings: for ED50: ED50, rat (second results table); for Preventative Adjuvant Edema % Inhibition: 25 mg/kg, p.o., rat
Procedure: This test is a primary screen for anti-inflammatory drugs.
Male Sprague Dawley rats (180-200 g) are used. The animals have free access water but food is withdrawn 18 hours before testing.
Drug Preparations and Administration:
Freund's complete adjuvant is prepared by suspending 5 mg killed and dried Mycobacterium butyricum (Difco) in 1 ml liquid paraffin. The test compounds are dissolved in distilled water or suspended in distilled water with a few drops of Tween 80 according to their solubility. For primary screening all drugs are administrated by gastric lavage at the arbitrary dosage of 100 mg/kg, p.o. in a volume of 0.5 ml/100 g body weight to groups of 10 animals.
The method is essentially that described by Wax et al., J. Pharmacol. Exp. Ther., 192, 166-171 (1975). Groups of rats are injected intradermally in the left hind paw with 0.1 ml of Freund's complete adjuvant. The test compound or vehicle is administrated before the adjuvant, 24 hours and 48 hours after the adjuvant (day 0, 1 and 2). The injected hind paw volume is measured before the injection of adjuvant and 24 hrs. after the last drug administration (day 3) by means of a plethysmometer (Buxco Electronics Inc.). The difference between then hind paw volume on day 0 and day 3 represents the edema volume. Phenylbutazone (50 mg/kg, p.o.) is included as a positive control.
The mean edema volume (expressed as ml±SEM) is calculated for each group and the percentage protection conferred by the drug is calculated:
where c is the mean edema volume for the untreated controls and t is the mean edema volume for the drug treated group.

Phenylquinone Writhing = assay: Phenylquinone-induced writhing in mice; format: in vivo, mouse (male Swiss albino); settings: for ED50: ED50, mice (second results table); for Phenylquinone Writhing in Mice % Inhibition: p.o.
Procedure: A further test used to determine the utility of the compounds of the present invention is designated: DRUG EFFECTS ON PHENYLQUINONE-INDUCED WRITHING IN MICE […]
The objective of this test is to determine the ability of test drugs to inhibit the nociceptive (pain) response of mice injected with a chemical irritant. This test is a primary screen for both peripheral and centrally acting analgesic drugs.
Male Swiss albino mice (15-25 g). The animals are fasted for 18 hours prior to use but have free access to water.
(§1) Drug Preparation and Administration:
Drugs are dissolved or suspended according to their solubility in 0.5% methyl cellulose or 0.5% Tween 80. They are administered by gastric lavage in a volume of 5 ml/kg. For primary screening all drugs are administered at the arbitrary dosage of 200 mg/kg, p.o. to a group of 10 mice.
A modification of the method of Siegmund at el., Proc. Soc. Exp. Biol. Med., 95, 729-731 (1957) is used. Groups of 5 mice are dosed with the test compound or vehicle control. Sixty minutes later the animals are injected i.p. with 0.3 ml/20 g body weight of a 0.02% solution of phenylquinone (PBQ; 2-phenyl-1,4-benzoquinone) and placed in individual observation boxes. The numer of writhing or abdominal squirming movements made by each mouse during the following 15 min. period is counted. The experiment is repeated with another group of 5 mice and the mean number of writhes per mouse for a group of 10 mice is calculated.
Drug treated and vehicle-treated control groups are compared and the percentage protection conferred by the drug is calculated:
Percentage protection=(c-t)100/c […]
where c=mean number of writhes in the control group where t=mean number of writhes in the test drug group

inflamed paw = assay: Paw Pressure Test in the Rat (Freund's adjuvant inflamed paw, pain threshold); format: in vivo, rat (male Sprague Dawley); settings: po; ED50, rat (second results table)
Text: A still further test used to determine the utility of the compounds of the present invention is designated: PAW PRESSURE TEST IN THE RAT
The objective of this test is to assess the potency of peripheral and central acting drugs in inhibiting the reaction of rats to painful stimulation applied to an inflamed paw.
Male Sprague Dawley rats (180-200 g) are used. The animals are fasted overnight prior to drug administration.
as §1
Freund's Complete Adjuvant (FCA) is prepared by suspending 5 mg killed and dried mycobacterium butyricum (Difco) in 1 ml liquid paraffin. The test compounds are dissolved, or suspended with a few drops of Tween 80, in distilled water according to their solubility. They are administered by gastric gavage in a volume of 0.5 ml/100 g body weight to groups of 10 animals.
Ten rats are used per group. The method is essentially that described by Randall, et al., Arch. Int. Pharmacodyn. 111, 409 (1957) and the apparatus which is used to apply pressure to the paw (Analgesy-meter for the rat paw, Ugo Basile from Coulbourn Instruments) is a modification of that described by Gilfoil et al., J. Pharmacol, 142, 1 (1963). The instrument is basically a device which exerts a force that increases at a constant rate. The force is continuously monitored by a pointer moving along a linear scale and is measured in grams. The inflammatory reaction is induced in the left hind paw of rats by injecting 0.1 ml of Freund's adjuvant intradermally. The test compound or vehicle is administered 24 hours after the adjuvant. Prior to drug administration the rats are selected for their paw sensitivity. Rats responding to a pain threshold greater than 10 g applied to the inflamed paw are rejected. The pain threshold (vocalization) is determined 1 and 3 hours later in the inflamed paw and the normal paw of the treated and control groups. The higher of the 2 readings will be considered as representative of the drug effect on the pain threshold.
Presentation of results and Criteria for Activity:
Each animal which has a reading 1.5 times greater than the mean reading of the control-group will be considered as responsive to treatment. The number of animals showing an analgesic effect is then determined in each group.
The ED50 (dose which causes analgesia in 50% of the animals) using at least 3 doses is then determined, by the method described in Litchfield et al., J. Pharmacol. Exp. Ther., 96, 99 (1949).

[1] = po, 72 h, rat (second results table), read-out: Preventative Adjuvant Edema percent inhibition
[2] = Mus musculus, po, mice (second results table), read-out: Phenylquinone Writhing in Mice percent inhibition

Row | Compound | inhibition in vivo at 25 mg/kg (Adjuvant Edema; [1]) [%] | inhibition in vivo at 25 mg/kg (Phenylquinone Writhing; [2]) [%] | ED50 (Adjuvant Edema; po) [mg/kg] | ED50 (Phenylquinone Writhing; Mus musculus, po) [mg/kg] | other results
1 | C=CC[C@@H]1CC[C@](CC)(CC(=O)O)c2[nH]c3cccc(Br)c3c21 (relative stereo) [Example 19] | 50 | 52 | – | – | –
2 | C=CC[C@@H]1CC[C@](CC)(CC(=O)O)c2[nH]c3c(Cl)ccc(C)c3c21 (relative stereo) [Example 34] | – | – | 2.6 | 7.6 | ED50 (inflamed paw): 0.46 mg/kg
3 | C=CC[C@@H]1CC[C@](CC)(CC(=O)O)c2[nH]c3c(C)ccc(Cl)c3c21 (relative stereo) [Example 38] | 48 | – | – | 5.4 | –
4 | CCc1cccc2c3c([nH]c12)C(CC)(CC(=O)O)CCC3Cc1ccccc1 (single isomer, unassigned) [Example 2 Isomer A, 1,8-Diethyl-2,3,4,9-tetrahydro-4-(phenylmethyl)-1H-carbazole-1-acetic Acid] | – | – | – | – | Preventative Adjuvant Edema % Inhibition (Adjuvant Edema): 6%; Phenylquinone Writhing in Mice % Inhibition (Phenylquinone Writhing; 25 mg/kg): 15%
5 | C=CC[C@@H]1CC[C@](CC)(CC(=O)O)c2[nH]c3c(I)cccc3c21 (relative stereo) [Example 22] | 46 | – | – | 17 | –
6 | CCCC1CCC(CC)(CC(=O)O)c2[nH]c3c(CC)cccc3c21 (stereo not shown) [4-propyl-1,8-diethyl-2,3,4,9-tetrahydro-1H--carbazole-1-acetic acid, reference compound] | – | – | – | – | Phenylquinone Writhing in Mice % Inhibition (Phenylquinone Writhing; 25 mg/kg): 15%; Phenylquinone Writhing in Mice % Inhibition (Phenylquinone Writhing; 200 mg/kg): 56%
7 | C=CC[C@@H]1CC[C@](CC)(CC(=O)O)c2[nH]c3ccc(CCCC)cc3c21 (relative stereo) [Example 8] | – | – | – | 10.6 | inhibition in vivo at 5 mg/kg (Adjuvant Edema; po, 72 h, dose 5 mg/kg, rat (second results table), read-out: Preventative Adjuvant Edema percent inhibition): 56%; ED50 (inflamed paw): 0.2 mg/kg
8 | C=CC[C@@H]1CC[C@](CC)(CC(=O)O)c2[nH]c3c(C)cccc3c21 (relative stereo) [Example 11, cis-1-ethyl-2,3,4,9-tetrahydro-8-methyl-4-(2-propenyl)-1H-carbazole-1-acetic acid] | – | – | 8.5 | 8.3 | ED50 (inflamed paw): 0.33 mg/kg
9 | C=CC[C@@H]1CC[C@](CC)(CC(=O)O)c2[nH]c3cc(Cl)ccc3c21 (relative stereo) [Example 20] | – | – | 5.4 | 5.1 | ED50 (inflamed paw): 0.38 mg/kg
10 | C=CC[C@H]1CC[C@](CC)(CC(=O)O)c2[nH]c3c(CC)cccc3c21 (relative stereo) [Example 4] | 35 | – | – | – | inhibition in vivo at 100 mg/kg (Phenylquinone Writhing; Mus musculus, po, dose 100 mg/kg, mice (second results table), read-out: Phenylquinone Writhing in Mice percent inhibition): 9%; ED50 (inflamed paw): 0.02 mg/kg
11 | C=CCC1CCC(CCC)(CC(=O)O)c2[nH]c3c(CC)cccc3c21 (stereo not shown) [Example 21] | 24 | 21 | – | – | –
12 | C=CC(C)(C)C1CCC(CC)(CC(=O)O)c2[nH]c3c(F)cccc3c21 (stereo not shown) [Example 23] | 16 | 41 | – | – | –
13 | C=CC[C@@H]1CC[C@](CC)(CC(=O)O)c2[nH]c3c(C)c(Cl)ccc3c21 (relative stereo) [Example 30, cis-7-chloro-1-ethyl-2,3,4,9-tetrahydro-8-methyl-4-(2-propenyl)-1H-carbazole-1-acetic acid] | – | – | 15 | 2.6 | ED50 (inflamed paw): 0.007 mg/kg
14 | C=C(C)CC1CCC(CC)(CC(=O)O)c2[nH]c3ccccc3c21 (stereo not shown) [Example 24] | 56 | 29 | – | – | –
15 | C=CC[C@@H]1CC[C@](CC)(CC(=O)O)c2[nH]c3c(F)cccc3c21 (relative stereo) [Example 15] | – | 27 | 13.3 | – | –
16 | C=CC[C@@H]1CC[C@](CC)(CC(=O)O)c2[nH]c3ccc(F)cc3c21 (relative stereo) [Example 13] | 36 | 20 | – | – | –
17 | C=CC[C@@H]1CC[C@](CC)(CC(=O)O)c2[nH]c3c(C(C)C)cccc3c21 (relative stereo) [Example 10] | 43 | 27 | – | – | –
18 | C=CC[C@@H]1CC[C@](CC)(CC(=O)O)c2c1c1cccc(CC)c1n2C (relative stereo) [Example 43, cis-1,8-Diethyl-2,3,4,9-tetrahydro-9-methyl-4-(2-propenyl)-1H-Carbazole-1-acetic Acid] | – | – | – | – | inhibition in vivo at 200 mg/kg (Phenylquinone Writhing; Mus musculus, po, dose 200 mg/kg, mice (second results table), read-out: Phenylquinone Writhing in Mice percent inhibition): 32%; ED50 (inflamed paw): 8 mg/kg
19 | C=CCC1CCC(C)(CC(=O)O)c2[nH]c3c(CC)cccc3c21 (stereo not shown) [Example 9] | 38 | 37 | – | – | –
20 | C=CC[C@@H]1CC[C@](CC)(CC(=O)O)c2[nH]c3c(Cl)cc(Cl)cc3c21 (relative stereo) [Example 36] | 35 | – | – | 7.6 | –
21 | C=CC[C@@H]1CC[C@](CC)(CC(=O)O)c2[nH]c3c(Br)cccc3c21 (relative stereo) [Example 14] | – | 38 | 28 | – | –
22 | C=CC[C@@H]1CC[C@](CC)(CC(=O)O)c2[nH]c3cc(Br)ccc3c21 (relative stereo) [Example 18] | – | – | 17.5 | 3.6 | –
23 | C=CC(C)(C)C1CCC(CC)(CC(=O)O)c2[nH]c3c(C)c(Cl)ccc3c21 (stereo not shown) [Example 35] | 30 | 28 | – | – | –
24 | CCc1cccc2c3c([nH]c12)C(CC)(CC(=O)O)CCC3Cc1ccccc1 (single isomer, unassigned) [Example 2 Isomer B, 1,8-Diethyl-2,3,4,9-tetrahydro-4-(phenylmethyl)-1H-carbazole-1-acetic Acid] | – | – | – | – | Preventative Adjuvant Edema % Inhibition (Adjuvant Edema): 38%; Phenylquinone Writhing in Mice % Inhibition (Phenylquinone Writhing; 25 mg/kg): 55%
25 | C=CC[C@@H]1CC[C@](CC)(CC(=O)O)c2[nH]c3c(C)c(Br)ccc3c21 (relative stereo) [Example 37] | 34 | – | – | 3 | –
26 | C=CC[C@@H]1CC[C@](CC)(CC(=O)O)c2[nH]c3cccc(Cl)c3c21 (relative stereo) [Example 17] | – | 35 | 6.6 | – | –
